The solubility is how much of the substance goes into solution per volume.

Type in all cases: physicochemical
The nature of series [1]: Solution stability in aqueous sodium phosphate buffer (visual, photographs). Conditions: for appearance of solution after storage: 11 mg in 5 ml 0.02 molar dibasic sodium phosphate buffer, ambient temperature, 3 days. How it is done: An aqueous buffer solution comprising 0.02 molar dibasic sodium phosphate was prepared. An 11 mg sample of 5-glyoxyliminosalicylic acid (Formula Ia-i) was added to a vial containing 5 ml of the buffer solution. […] Both vials were stored at ambient temperature.

Series [2] is described as follows: Solubility testing in sodium phosphate buffer. The note with it: thermodynamic from solid; aqueous buffer, 0.02 molar dibasic sodium phosphate; sonicated, undissolved solid weighed. The method, then:
Compounds of Formulas I and II, prepared as described in the examples above, were tested to determine their solubility in a sodium phosphate buffer.
An aqueous buffer solution comprising 0.02 molar dibasic sodium phosphate was prepared. A weighted amount of solid was sonicated in the buffer, and then centrifuged to collect the undissolved material. The undissolved solid was dried in vacuuo and weighed. The mass of the undissolved portion was then used to calculate the mass that was successfully dissolved in the known volume of buffer.

The nature of series [3]: In vitro testing: mesalamine (5-ASA) evolution from 5-glyoxyliminosalicylic acid in buffered saline, by HPLC. The method, then: The vial was held at ambient temperature for 22.75 hours and sampled. […] No other peaks were present.
Without being bound to a particular theory, it is believed that for 5-glyoxyliminosalicylic acid, the presence of chloride greatly increases the rate of mesalamine evolution.

Series [4] in a line: In vitro testing: decomposition to 5-ASA in phosphate buffer (pH 6.5), by infusion MS and LCMS. The note with it: 10 mg in 10 ml phosphate buffer (pH 6.5) overnight. The method, then: 10 mg of 5-ethylglyoxyliminosalicylic acid (prepared as described in Example 4 above) was stored in 10 ml phosphate buffer (pH 6.5) overnight.

The structures appear in SMILES notation.

On to `Nc1ccc(O)c(C(=O)O)c1` [Mesalazine, 5-aminosalicylic acid, reference compound], for which, in series [1], the “appearance of solution after storage” value is “turned a dark brown color, and a significant amount of brown solid material precipitated”. `O=C(O)/C=N/c1ccc(C(=O)O)c(O)c1` [Formula Ib-i, 4-glyoxyliminosalicylic acid] displayed a solubility in series [2] of 17.3 mg/mL.

`O=C(O)/C=N\c1ccc(O)c(C(=O)O)c1` [Formula Ia-i, 5-glyoxyliminosalicylic acid]: the “percentage of 5-aminosalicylic acid by HPLC” value in series [3] (12 mg compound + 12 mg 5-aminosalicylic acid in 6 ml buffered saline, ambient temperature, 22.75 hours, no other peaks) is listed as 87%. The mesalamine evolution result in series [3] (same experiment in the absence of saline) is given as “very little mesalamine evolution”. Besides, the “appearance of solution after storage” value in series [1] is “still clear and lightly colored”. In addition, the “storage stability relative to mesalazine” value in series [1] (dissolved in aqueous sodium phosphate buffer, 3 days ambient) is given as “significantly greater degree of storage stability than mesalazine”. The compound also returned a solubility in series [2] of 11 mg/mL. `CCOC(=O)/C=N\c1ccc(O)c(C(=O)OCC)c1` [Formula Ia-ii, ethyl 5-ethylglyoxyliminosalicylate] displayed a solubility in series [2] of 0.13 mg/mL.

In turn, `CCOC(=O)C=Nc1ccc(C(=O)O)c(O)c1` [Formula Ib-ii, 4-ethylgloxyliminosalicylic acid] yielded a solubility in series [2] of 10.2 mg/mL. As for `CCOC(=O)/C=N\c1ccc(O)c(C(=O)O)c1` [Formula Ia-iii, 5-ethylglyoxyliminosalicylic acid], in series [4], the “decomposed to 5-ASA (LCMS, single ion monitoring)” value is about 90% and the “decomposition to release 5-ASA (infusion MS)” value is on record as “partially decomposed”. For the same compound, the solubility in series [2] worked out at 12 mg/mL. Consider `COc1cc(/C=N\c2ccc(O)c(C(=O)O)c2)ccc1O` [Formula IIa-i, 5-vanilliniminosalicylic acid], for which the solubility in series [2] was determined as 3.45 mg/mL. In the case of `COc1cc(/C=N\c2ccc(C(=O)O)c(O)c2)ccc1O` [Formula IIb-i, 4-vanilliniminosalicylic acid], the solubility in series [2] turned out to be 7.35 mg/mL.

Values taken from US10100005B1 (Eclipse Therapeutics, LLC, priority 2017, dated 2018).
